Assay results reported in article PMC4450297, “Screening Active Compounds from Garcinia Species Native to China Reveals Novel Compounds Targeting the STAT/JAK Signaling Pathway” (BioMed Research International, 2015).

test system: SW13; experiment: Cell panel screen (CellTiter-Glo); assay type: cell-based, human; settings: SW13 (Adrenal gland), 20 micromolar, 72 hrs
Method in brief: (§1)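 Single-concentration screen: 20 μM compound, 72 h, versus DMSO-only untreated cells. Viability read by CellTiter-Glo luminescence; % inhibition = (untreated − treated)/(untreated − no-cell background) × 100. Cells grown in recommended media plus 10% FBS at 37° C.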

Compound	Percent Inhibition [%]
CC1(C)C=Cc2cc3c(=O)c4c(O)cc(O)cc4oc3c(O)c2O1 [Go-11]	24

test system: HCC1569; experiment: Cell panel screen (CellTiter-Glo); assay type: cell-based, human; settings: HCC1569 (Breast), 20 micromolar, 72 hrs
Method in brief: as §1

Compound	Percent Inhibition [%]
CC1(C)C=Cc2cc3c(=O)c4c(O)cc(O)cc4oc3c(O)c2O1 [Go-11]	41

test system: BT-474; experiment: Cell panel screen (CellTiter-Glo); assay type: cell-based, human; settings: BT-474 (Breast), 20 micromolar, 72 hrs
Method in brief: as §1

Compound	Percent Inhibition [%]
CC1(C)C=Cc2cc3c(=O)c4c(O)cc(O)cc4oc3c(O)c2O1 [Go-11]	31

test system: T98G; experiment: Cell panel screen (CellTiter-Glo); assay type: cell-based, human; settings: T98G (Brain), 20 micromolar, 72 hrs
Method in brief: as §1

Compound	Percent Inhibition [%]
CC1(C)C=Cc2cc3c(=O)c4c(O)cc(O)cc4oc3c(O)c2O1 [Go-11]	68

test system: TCCSUP; experiment: Cell panel screen (CellTiter-Glo); assay type: cell-based, human; settings: TCCSUP (Urinary bladder), 20 micromolar, 72 hrs
Method in brief: as §1

Compound	Percent Inhibition [%]
CC1(C)C=Cc2cc3c(=O)c4c(O)cc(O)cc4oc3c(O)c2O1 [Go-11]	43

test system: HGC-27; experiment: Cell panel screen (CellTiter-Glo); assay type: cell-based, human; settings: HGC-27 (Stomach), 20 micromolar, 72 hrs
Method in brief: as §1

Compound	Percent Inhibition [%]
CC1(C)C=Cc2cc3c(=O)c4c(O)cc(O)cc4oc3c(O)c2O1 [Go-11]	54

test system: C3A; experiment: Cell panel screen (CellTiter-Glo); assay type: cell-based, human; settings: C3A (Liver), 20 micromolar, 72 hrs
Method in brief: as §1

Compound	Percent Inhibition [%]
CC1(C)C=Cc2cc3c(=O)c4c(O)cc(O)cc4oc3c(O)c2O1 [Go-11]	19

test system: J82; experiment: Cell panel screen (CellTiter-Glo); assay type: cell-based, human; settings: J82 (Urinary bladder), 20 micromolar, 72 hrs
Method in brief: as §1

Compound	Percent Inhibition [%]
CC1(C)C=Cc2cc3c(=O)c4c(O)cc(O)cc4oc3c(O)c2O1 [Go-11]	52

test system: Colo 205; experiment: Cell panel screen (CellTiter-Glo); assay type: cell-based, human; settings: Colo 205, 20 micromolar, 72 hrs
Method in brief: as §1

Compound	Percent Inhibition [%]
CC1(C)C=Cc2cc3c(=O)c4c(O)cc(O)cc4oc3c(O)c2O1 [Go-11]	11

test system: C8166; experiment: Cell panel screen (CellTiter-Glo); assay type: cell-based, human; settings: C8166 (Leukemia), 20 micromolar, 72 hrs
Method in brief: as §1

Compound	Percent Inhibition [%]
CC1(C)C=Cc2cc3c(=O)c4c(O)cc(O)cc4oc3c(O)c2O1 [Go-11]	71

test system: HCC1395; experiment: Cell panel screen (CellTiter-Glo); assay type: cell-based, human; settings: HCC1395 (Breast), 20 micromolar, 72 hrs
Method in brief: as §1

Compound	Percent Inhibition [%]
CC1(C)C=Cc2cc3c(=O)c4c(O)cc(O)cc4oc3c(O)c2O1 [Go-11]	68

test system: HEC-1-A; experiment: Cell panel screen (CellTiter-Glo); assay type: cell-based, human; settings: HEC-1-A (Uterus), 20 micromolar, 72 hrs
Method in brief: as §1

Compound	Percent Inhibition [%]
CC1(C)C=Cc2cc3c(=O)c4c(O)cc(O)cc4oc3c(O)c2O1 [Go-11]	38

test system: NCI-H28; experiment: Cell panel screen (CellTiter-Glo); assay type: cell-based, human; settings: NCI-H28 (Lung), 20 micromolar, 72 hrs
Method in brief: as §1

Compound	Percent Inhibition [%]
CC1(C)C=Cc2cc3c(=O)c4c(O)cc(O)cc4oc3c(O)c2O1 [Go-11]	33

test system: BT-549; experiment: Cell panel screen (CellTiter-Glo); assay type: cell-based, human; settings: BT-549 (Breast), 20 micromolar, 72 hrs
Method in brief: as §1

Compound	Percent Inhibition [%]
CC1(C)C=Cc2cc3c(=O)c4c(O)cc(O)cc4oc3c(O)c2O1 [Go-11]	46

test system: HCC1599; experiment: Cell panel screen (CellTiter-Glo); assay type: cell-based, human; settings: HCC1599 (Breast), 20 micromolar, 72 hrs
Method in brief: as §1

Compound	Percent Inhibition [%]
CC1(C)C=Cc2cc3c(=O)c4c(O)cc(O)cc4oc3c(O)c2O1 [Go-11]	49

test system: NCI-H1694; experiment: Cell panel screen (CellTiter-Glo); assay type: cell-based, human; settings: NCI-H1694 (Lung), 20 micromolar, 72 hrs
Method in brief: as §1

Compound	Percent Inhibition [%]
CC1(C)C=Cc2cc3c(=O)c4c(O)cc(O)cc4oc3c(O)c2O1 [Go-11]	73

test system: ZR-75-30; experiment: Cell panel screen (CellTiter-Glo); assay type: cell-based, human; settings: ZR-75-30 (Breast), 20 micromolar, 72 hrs
Method in brief: as §1

Compound	Percent Inhibition [%]
CC1(C)C=Cc2cc3c(=O)c4c(O)cc(O)cc4oc3c(O)c2O1 [Go-11]	62

test system: HPAF-II; experiment: Cell panel screen (CellTiter-Glo); assay type: cell-based, human; settings: HPAF-II (Pancreas), 20 micromolar, 72 hrs
Method in brief: as §1

Compound	Percent Inhibition [%]
CC1(C)C=Cc2cc3c(=O)c4c(O)cc(O)cc4oc3c(O)c2O1 [Go-11]	18

test system: NCI-H2405; experiment: Cell panel screen (CellTiter-Glo); assay type: cell-based, human; settings: NCI-H2405 (Lung), 20 micromolar, 72 hrs
Method in brief: as §1

Compound	Percent Inhibition [%]
CC1(C)C=Cc2cc3c(=O)c4c(O)cc(O)cc4oc3c(O)c2O1 [Go-11]	3

test system: MSTO-211-H; experiment: Cell panel screen (CellTiter-Glo); assay type: cell-based, human; settings: MSTO-211-H (Lung), 20 micromolar, 72 hrs
Method in brief: as §1

Compound	Percent Inhibition [%]
CC1(C)C=Cc2cc3c(=O)c4c(O)cc(O)cc4oc3c(O)c2O1 [Go-11]	66

test system: HCC1937; experiment: Cell panel screen (CellTiter-Glo); assay type: cell-based, human; settings: HCC1937 (Breast), 20 micromolar, 72 hrs
Method in brief: as §1

Compound	Percent Inhibition [%]
CC1(C)C=Cc2cc3c(=O)c4c(O)cc(O)cc4oc3c(O)c2O1 [Go-11]	21

test system: HT-1197; experiment: Cell panel screen (CellTiter-Glo); assay type: cell-based, human; settings: HT-1197 (Urinary bladder), 20 micromolar, 72 hrs
Method in brief: as §1

Compound	Percent Inhibition [%]
CC1(C)C=Cc2cc3c(=O)c4c(O)cc(O)cc4oc3c(O)c2O1 [Go-11]	39

test system: CCF-STTG1; experiment: Cell panel screen (CellTiter-Glo); assay type: cell-based, human; settings: CCF-STTG1 (Brain), 20 micromolar, 72 hrs
Method in brief: as §1

Compound	Percent Inhibition [%]
CC1(C)C=Cc2cc3c(=O)c4c(O)cc(O)cc4oc3c(O)c2O1 [Go-11]	44

test system: CW-2; experiment: Cell panel screen (CellTiter-Glo); assay type: cell-based, human; settings: CW-2 (Colon), 20 micromolar, 72 hrs
Method in brief: as §1

Compound	Percent Inhibition [%]
CC1(C)C=Cc2cc3c(=O)c4c(O)cc(O)cc4oc3c(O)c2O1 [Go-11]	61

test system: Bel-7402; experiment: Cell panel screen (CellTiter-Glo); assay type: cell-based, human; settings: Bel-7402 (Liver), 20 micromolar, 72 hrs
Method in brief: as §1

Compound	Percent Inhibition [%]
CC1(C)C=Cc2cc3c(=O)c4c(O)cc(O)cc4oc3c(O)c2O1 [Go-11]	16

test system: RL95; experiment: Cell panel screen (CellTiter-Glo); assay type: cell-based, human; settings: RL95 (Uterus), 20 micromolar, 72 hrs
Method in brief: as §1

Compound	Percent Inhibition [%]
CC1(C)C=Cc2cc3c(=O)c4c(O)cc(O)cc4oc3c(O)c2O1 [Go-11]	72

test system: NCI-H524; experiment: Cell panel screen (CellTiter-Glo); assay type: cell-based, human; settings: NCI-H524 (Lung), 20 micromolar, 72 hrs
Method in brief: as §1

Compound	Percent Inhibition [%]
CC1(C)C=Cc2cc3c(=O)c4c(O)cc(O)cc4oc3c(O)c2O1 [Go-11]	83

test system: NCI-H2347; experiment: Cell panel screen (CellTiter-Glo); assay type: cell-based, human; settings: NCI-H2347 (Lung), 20 micromolar, 72 hrs
Method in brief: as §1

Compound	Percent Inhibition [%]
CC1(C)C=Cc2cc3c(=O)c4c(O)cc(O)cc4oc3c(O)c2O1 [Go-11]	10

test system: NCI-H1623; experiment: Cell panel screen (CellTiter-Glo); assay type: cell-based, human; settings: NCI-H1623 (Lung), 20 micromolar, 72 hrs
Method in brief: as §1

Compound	Percent Inhibition [%]
CC1(C)C=Cc2cc3c(=O)c4c(O)cc(O)cc4oc3c(O)c2O1 [Go-11]	-10

test system: Panc 03.27; experiment: Cell panel screen (CellTiter-Glo); assay type: cell-based, human; settings: Panc 03.27 (Pancreas), 20 micromolar, 72 hrs
Method in brief: as §1

Compound	Percent Inhibition [%]
CC1(C)C=Cc2cc3c(=O)c4c(O)cc(O)cc4oc3c(O)c2O1 [Go-11]	39

test system: M059J; experiment: Cell panel screen (CellTiter-Glo); assay type: cell-based, human; settings: M059J (Brain), 20 micromolar, 72 hrs
Method in brief: as §1

Compound	Percent Inhibition [%]
CC1(C)C=Cc2cc3c(=O)c4c(O)cc(O)cc4oc3c(O)c2O1 [Go-11]	78

test system: A498; experiment: Cell panel screen (CellTiter-Glo); assay type: cell-based, human; settings: A498 (listed under Lung), 20 micromolar, 72 hrs
Method in brief: as §1

Compound	Percent Inhibition [%]
CC1(C)C=Cc2cc3c(=O)c4c(O)cc(O)cc4oc3c(O)c2O1 [Go-11]	37

test system: ChaGo-K-1; experiment: Cell panel screen (CellTiter-Glo); assay type: cell-based, human; settings: ChaGo-K-1 (Lung), 20 micromolar, 72 hrs
Method in brief: as §1

Compound	Percent Inhibition [%]
CC1(C)C=Cc2cc3c(=O)c4c(O)cc(O)cc4oc3c(O)c2O1 [Go-11]	75

test system: NCI-H1770; experiment: Cell panel screen (CellTiter-Glo); assay type: cell-based, human; settings: NCI-H1770 (Lung), 20 micromolar, 72 hrs
Method in brief: as §1

Compound	Percent Inhibition [%]
CC1(C)C=Cc2cc3c(=O)c4c(O)cc(O)cc4oc3c(O)c2O1 [Go-11]	38

test system: T47D; experiment: Cell panel screen (CellTiter-Glo); assay type: cell-based, human; settings: T47D (Breast), 20 micromolar, 72 hrs
Method in brief: as §1

Compound	Percent Inhibition [%]
CC1(C)C=Cc2cc3c(=O)c4c(O)cc(O)cc4oc3c(O)c2O1 [Go-11]	35

test system: A704; experiment: Cell panel screen (CellTiter-Glo); assay type: cell-based, human; settings: A704 (Kidney), 20 micromolar, 72 hrs
Method in brief: as §1

Compound	Percent Inhibition [%]
CC1(C)C=Cc2cc3c(=O)c4c(O)cc(O)cc4oc3c(O)c2O1 [Go-11]	24
